Results on 29 compounds are retold here after patent publication US6150385A, “1,3,4-thiadiazoles useful for the treatment of CMV infections” (Pharmacia & Upjohn Company, priority 1999, dated 2000).

In the assay the target is T1, HCMV polymerase (Human cytomegalovirus, UniProt P08546).
T1 construct: made in house; host or cells: SF-9 insect cells infected with recombinant baculovirus
T1 sequence (P08546 whole entry): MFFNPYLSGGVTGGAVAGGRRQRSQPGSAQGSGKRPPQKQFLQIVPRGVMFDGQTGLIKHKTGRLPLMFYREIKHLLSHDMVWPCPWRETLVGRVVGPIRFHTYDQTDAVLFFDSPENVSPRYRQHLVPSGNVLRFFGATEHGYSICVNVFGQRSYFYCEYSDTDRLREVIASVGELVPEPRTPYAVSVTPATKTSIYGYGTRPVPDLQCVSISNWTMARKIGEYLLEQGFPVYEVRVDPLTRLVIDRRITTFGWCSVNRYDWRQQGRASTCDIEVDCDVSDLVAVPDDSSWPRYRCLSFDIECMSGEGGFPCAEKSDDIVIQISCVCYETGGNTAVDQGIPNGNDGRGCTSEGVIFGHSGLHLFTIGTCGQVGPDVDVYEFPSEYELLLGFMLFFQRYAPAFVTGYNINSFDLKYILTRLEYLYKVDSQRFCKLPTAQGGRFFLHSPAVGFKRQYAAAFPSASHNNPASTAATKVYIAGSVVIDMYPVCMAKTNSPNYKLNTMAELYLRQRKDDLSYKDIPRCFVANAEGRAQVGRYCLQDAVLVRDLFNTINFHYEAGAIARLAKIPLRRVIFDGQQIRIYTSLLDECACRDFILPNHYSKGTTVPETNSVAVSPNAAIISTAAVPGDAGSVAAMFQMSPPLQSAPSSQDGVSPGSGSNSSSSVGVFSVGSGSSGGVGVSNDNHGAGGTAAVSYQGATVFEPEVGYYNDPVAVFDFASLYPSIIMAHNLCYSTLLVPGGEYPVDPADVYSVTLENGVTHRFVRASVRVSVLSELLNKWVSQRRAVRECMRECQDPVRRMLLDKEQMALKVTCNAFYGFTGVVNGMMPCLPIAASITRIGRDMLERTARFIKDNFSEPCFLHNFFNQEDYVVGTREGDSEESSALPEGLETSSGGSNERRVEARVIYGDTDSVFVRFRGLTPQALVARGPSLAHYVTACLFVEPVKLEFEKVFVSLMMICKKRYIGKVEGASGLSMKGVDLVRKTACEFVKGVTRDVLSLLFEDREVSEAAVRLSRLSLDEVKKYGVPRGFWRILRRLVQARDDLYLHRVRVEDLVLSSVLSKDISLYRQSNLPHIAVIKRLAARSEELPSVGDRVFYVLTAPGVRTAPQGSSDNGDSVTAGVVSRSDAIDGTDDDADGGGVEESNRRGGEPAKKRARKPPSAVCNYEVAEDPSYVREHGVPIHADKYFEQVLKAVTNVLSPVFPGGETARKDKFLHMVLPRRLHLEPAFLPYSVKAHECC
Kind of assay: HCMV polymerase assay (scintillation proximity assay). In kind it is biochemical. The conditions noted are these: percentage of inhibition at 25 μM concentration in CMV polymerase assay. The gist of the method:
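Baculovirus/SF-9-expressed HCMV polymerase in 5.4 mM HEPES pH 7.5, 11.7 mM KCl, 4.5 mM MgCl2, 0.36 mg/ml BSA, 90 nM 3H-dTTP, with or without 2 mM CHAPS. Started with 6 nM biotinylated poly(dA)-oligo(dT), 30 min at 25 or 37 °C, EDTA-stopped, read by streptavidin-SPA counting; % inhibition at 25 μM.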
A general note: SPA uses beads or plates that emit light when radiolabelled molecules are held near them.
A word on the inhibition: it is the percentage by which the read-out fell short of the control. A higher inhibition goes with a response far below the control. As to `O=C(Nc1nnc(NCc2ccncc2)s1)c1ccc2c(c1)C(=O)OC2=O` [compound 54, 1,3-dioxo-N-{5-[(4-pyridinylmethyl)amino]-1,3,4-thiadiazol-2-yl}-1,3-dihydro-2-benzofuran-5-carboxamide], 25 µM produced 77.7% inhibition.
Compound `O=C(/C=C/c1ccccc1)Nc1nnc(NCCC(c2ccccc2)c2ccccc2)s1` [compound 331, (E)-N-{5-[(3,3-diphenylpropyl)amino]-1,3,4-thiadiazol-2-yl}-3-phenyl-2-propenamide] showed an inhibition at 25 µM of 32.1%.
Regarding `CCOc1ccc2ccccc2c1C(=O)Nc1nnc(NCCSc2ccccc2)s1` [compound 206, 2-ethoxy-N-(5-{[2-(phenylsulfanyl)ethyl]amino}-1,3,4-thiadiazol-2-yl)-1-naphthamide], the inhibition at 25 µM was 44.9%.
For `O=C(Nc1nnc(NCCc2c[nH]c3ccccc23)s1)c1ccc(S(=O)(=O)F)cc1` [compound 90, 4-{[(5-{[2-(1H-indol-3-yl)ethyl]amino}-1,3,4-thiadiazol-2-yl)amino]carbonyl}benzenesulfonyl fluoride], the “% Inhib” value was found to be 66.1%.
On the same count and under the same terms, as for `O=C(Nc1nnc(NCC(c2ccccc2)c2ccccc2)s1)c1ccc(S(=O)(=O)F)cc1` [compound 111, 4-[({5-[(2,2-diphenylethyl)amino]-1,3,4-thiadiazol-2-yl}amino)carbonyl]benzenesulfonyl fluoride], the figure is 62.6%.
Turning to `O=C(CCCCCl)Nc1nnc(NCC(c2ccccc2)c2ccccc2)s1` [compound 186, 5-chloro-N-{5-[(2,2-diphenylethyl)amino]-1,3,4-thiadiazol-2-yl}pentanamide], the inhibition at 25 µM is 47.4%.
In turn, `NS(=O)(=O)c1ccc(CNc2nnc(NC(=O)c3c(Cl)cccc3Cl)s2)cc1` [compound 30, N-(5-{[4-(aminosulfonyl)benzyl]amino}-1,3,4-thiadiazol-2-yl)-2,6-dichlorobenzamide] returned an inhibition at 25 µM of 91.8%.
Still for that read-out and setting: with `O=C(Nc1nnc(NCc2cccs2)s1)c1cc2ccccc2s1` [compound 237, N-{5-[(2-thienylmethyl)amino]-1,3,4-thiadiazol-2-yl}-1-benzothiophene-2-carboxamide] the figure was 41.5%; with `CC(C)(C)OC(=O)CCNc1nnc(NC(=O)/C=C/c2ccccc2)s1` [compound 120, tert-butyl 3-[(5-{[(E)-3-phenyl-2-propenoyl]amino}-1,3,4-thiadiazol-2-yl)amino]propanoate], 60%.
Still for that read-out and setting: as for `COc1ccccc1C(=O)Nc1nnc(NCc2ccc(F)cc2)s1` [compound 348, N-{5-[(4-fluorobenzyl)amino]-1,3,4-thiadiazol-2-yl}-2-methoxybenzamide], the figure is 30.4%; as for `O=C(Nc1nnc(NCCc2cccs2)s1)c1c(Cl)cccc1Cl` [compound 92, 2,6-dichloro-N-(5-{[2-(2-thienyl)ethyl]amino}-1,3,4-thiadiazol-2-yl)benzamide], 66.1%.
In the case of `O=C(/C=C/c1ccccc1)Nc1nnc(NCCNc2ccccc2)s1` [compound 379, (E)-N-{5-[(2-anilinoethyl)amino]-1,3,4-thiadiazol-2-yl}-3-phenyl-2-propenamide], the inhibition at 25 µM was found to be 27.5%.
As for `O=C(Nc1nnc(NCCN2CCOCC2)s1)c1cc2ccccc2s1` [compound 453, N-{5-[(2-morpholinoethyl)amino]-1,3,4-thiadiazol-2-yl}-1-benzothiophene-2-carboxamide], testing at 25 µM gave an inhibition of 21.2%.
Regarding `CCSCCNc1nnc(NC(=O)c2c(Cl)cccc2Cl)s1` [compound 292, 2,6-dichloro-N-(5-{[2-(ethylsulfanyl)ethyl]amino}-1,3,4-thiadiazol-2-yl)benzamide], testing at 25 µM gave an inhibition of 35.6%.
For `O=C(Nc1nnc(NCCc2ccccc2)s1)c1ccc2c(c1)C(=O)OC2=O` [compound 24, 1,3-dioxo-N-[5-(phenethylamino)-1,3,4-thiadiazol-2-yl]-1,3-dihydro-2-benzofuran-5-carboxamide], testing at 25 µM gave an inhibition of 95.6%.
As for `O=C(/C=C/c1ccccc1)Nc1nnc(NCCSc2ccccc2)s1` [compound 114, (E)-3-phenyl-N-(5-{[2-(phenylsulfanyl)ethyl]amino}-1,3,4-thiadiazol-2-yl)-2-propenamide], testing at 25 µM gave an inhibition of 62.1%.
The same measure, in the same setting: with `O=C(/C=C/c1ccccc1)Nc1nnc(NCc2ccncc2)s1` [compound 94, (E)-3-phenyl-N-{5-[(4-pyridinylmethyl)amino]-1,3,4-thiadiazol-2-yl}-2-propenamide] the figure was 65.9%; with `CCOc1ccc2ccccc2c1C(=O)Nc1nnc(NCCNc2ccccc2)s1` [compound 69, N-{5-[(2-anilinoethyl)amino]-1,3,4-thiadiazol-2-yl}-2-ethoxy-1-naphthamide], 70.6%; with `CCSCCNc1nnc(NC(=O)/C=C/c2ccccc2)s1` [compound 211, (E)-N-(5-{[2-(ethylsulfanyl)ethyl]amino}-1,3,4-thiadiazol-2-yl)-3-phenyl-2-propenamide], 44.3%.
Still for that read-out and setting: as for `O=C(Nc1nnc(NCCCN2CCCC2=O)s1)c1ccc(Br)cc1` [compound 419, 4-bromo-N-(5-{[3-(2-oxo-1-pyrrolidinyl)propyl]amino}-1,3,4-thiadiazol-2-yl)benzamide], the figure is 24.3%; as for `CCCCCCCC/C=C/CCCCCCCC(=O)Nc1nnc(NCC(CC)CCCC)s1` (centres unmarked) [compound 286, (E)-N-{5-[(2-ethylhexyl)amino]-1,3,4-thiadiazol-2-yl}-9-octadecenamide], 36.3%.
Still for that read-out and setting: as for `O=C(Nc1nnc(NCCCCc2ccccc2)s1)c1cc2ccccc2s1` [compound 52, N-{5-[(4-phenylbutyl)amino]-1,3,4-thiadiazol-2-yl}-1-benzothiophen-2-carboxamide], the figure is 78.7%; as for `O=C(/C=C/c1ccccc1Cl)Nc1nnc(NC2CCC2)s1` [compound 276, (E)-3-(2-chlorophenyl)-N-[5-(cyclobutylamino)-1,3,4-thiadiazol-2-yl]-2-propenamide], 37.9%; as for `Cc1ccc(C(=O)Nc2nnc(NCCc3ccc(S(N)(=O)=O)cc3)s2)cc1` [compound 230, N-(5-{[4-(aminosulfonyl)phenethyl]amino}-1,3,4-thiadiazol-2-yl)-4-methylbenzamide], 42.3%.
The compound `O=C(CCCCCl)Nc1nnc(NCc2ccc(F)cc2)s1` [compound 321, 5-chloro-N-{5-[(4-fluorobenzyl)amino]-1,3,4-thiadiazol-2-yl}pentanamide] yielded an inhibition at 25 µM of 33.2%.
On the same count and under the same terms, with `CCCCCCCCCCCNc1nnc(NC(=O)c2ccc(Cl)c(Cl)c2)s1` [compound 375, 3,4-dichloro-N-[5-(undecylamino)-1,3,4-thiadiazol-2-yl]benzamide] the figure was 27.9%; with `O=C(/C=C/c1ccccc1)Nc1nnc(NCCN2CCOCC2)s1` [compound 220, (E)-N-{5-[(2-morpholinoethyl)amino]-1,3,4-thiadiazol-2-yl}-3-phenyl-2-propenamide], 43.6%; with `O=C(Nc1nnc(NCCc2c[nH]cn2)s1)c1cc2ccccc2s1` [compound 330], 32.2%.
Still for that read-out and setting: as for `CC(C)c1cc(C(C)C)c(C(=O)Nc2nnc(NCCCN3CCCC3=O)s2)c(C(C)C)c1` [compound 381, 2,4,6-triisopropyl-N-(5-{[3-(2-oxo-1-pyrrolidinyl)propyl]amino}-1,3,4-thiadiazol-2-yl)benzamide], the figure is 27.4%.
